# Data as given in paper PMC7377239, “Cardiovascular Effects of Polychlorinated Biphenyls and Their Major Metabolites” (Environmental Health Perspectives, 2020).
# Counter-ions that a name gives are not always drawn. Like-named read-outs stand apart in the source and are kept apart here.
# Key:
# [1] = tested on: iCell endothelial cells (human iPSC-derived ECs); assay: Tube formation (tubulogenesis) assay in iCell endothelial cells, 18 h; type: cell-based; conditions: Homo sapiens, Endothelial cell, iPSC-EC tube formation, 18 hr; for activity at 0.1 µM: 0.10 µM; for minimal effective concentration: top concentration 100.00 µM
# Procedure, shortened: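 iCell ECs (passages 1–5) seeded 7,500 cells/well on reduced-growth-factor Geltrex in starvation medium, exposed overnight at 37°C to compounds in triplicate concentration–response (0.5% DMSO vehicle). Calcein AM staining, 4× imaging, angiogenesis image analysis; readouts normalized to vehicle, four-parameter logistic fit, POD at 1 SD of vehicle; 100 μM assigned NOAEL if no response.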
# [2] = tested on: iCell endothelial cells (human iPSC-derived ECs); assay: High-content imaging cytotoxicity in iCell endothelial cells, 24 h; type: cell-based; conditions: Homo sapiens, Endothelial cell, iPSC-EC, 24 hr; for viability at 0.1 µM / activity at 0.1 µM: 0.10 µM; for minimal effective concentration: top concentration 100.00 µM
# Procedure, shortened: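 Human iPSC-derived endothelial cells (passages 1–5) were grown to a fibronectin-coated monolayer, then exposed 24 h at 37 °C with 0.5% DMSO vehicle. Staining was Hoechst 33342, MitoTracker Orange and calcein AM, read by high-content imaging. Point of departure came from 4-parameter logistic fits, with a 1-SD vehicle cutoff and 100 µM as the top concentration.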
# [3] = 0.00 µM control = 100.00, read-out: endo.mtl.18hr
# [4] = 0.00 µM control = 100.00, read-out: endo.tlps.18hr
# [5] = 0.00 µM control = 100.00, read-out: endo.tta.18hr
# [6] = 0.00 µM control = 100.00, read-out: endo.ttl.18hr
# [7] = 0.00 µM control = 100.00, read-out: endo.cyto.24hr
# [8] = 0.00 µM control = 100.00, read-out: endo.mito.24hr
# [9] = 0.00 µM control = 100.00, read-out: endo.mitoint.24hr
# [10] = 0.00 µM control = 100.00, read-out: endo.nma.24hr
# [11] = 0.00 µM control = 100.00, read-out: endo.tc.24hrs
# [12] = read-out: endo.mitoint.24hr POD
structure (smiles),measurement,setting,value
O=S(=O)(O)Oc1cc(-c2ccccc2)ccc1Cl [3-yl PCB 3 sulfate],activity at 0.01 µM,[1]; [3],102%
same,activity at 0.01 µM,[1]; [4],104%
same,activity at 0.01 µM,[1]; [5],152%
same,activity at 0.01 µM,[1]; [6],139%
same,activity at 0.1 µM,[1]; [3],88.6%
same,activity at 0.1 µM,[1]; [4],127%
same,activity at 0.1 µM,[1]; [5],93.5%
same,activity at 0.1 µM,[1]; [6],88.4%
same,activity at 1 µM,[1]; [3],92.1%
same,activity at 1 µM,[1]; [4],89.4%
same,activity at 1 µM,[1]; [5],106%
same,activity at 1 µM,[1]; [6],101%
same,activity at 10 µM,[1]; [3],75.1%
same,activity at 10 µM,[1]; [4],68.7%
same,activity at 10 µM,[1]; [5],61.4%
same,activity at 10 µM,[1]; [6],59.2%
same,activity at 100 µM,[1]; [3],83.7%
same,activity at 100 µM,[1]; [4],46.7%
same,activity at 100 µM,[1]; [5],78.8%
same,activity at 100 µM,[1]; [6],79%
same,minimal effective concentration,[1]; read-out: endo.mtl.18hr POD,100 µM
same,minimal effective concentration,[1]; read-out: endo.tlps.18hr POD,6.75 µM
same,minimal effective concentration,[1]; read-out: endo.tta.18hr POD,100 µM
same,minimal effective concentration,[1]; read-out: endo.ttl.18hr POD,100 µM
same,viability at 0.01 µM,[2]; [7],93.7%
same,activity at 0.01 µM,[2]; [8],93.8%
same,activity at 0.01 µM,[2]; [9],120%
same,activity at 0.01 µM,[2]; [10],104%
same,viability at 0.01 µM,[2]; [11],93.7%
same,viability at 0.1 µM,[2]; [7],93%
same,activity at 0.1 µM,[2]; [8],93.3%
same,activity at 0.1 µM,[2]; [9],105%
same,activity at 0.1 µM,[2]; [10],104%
same,viability at 0.1 µM,[2]; [11],93%
same,viability at 1 µM,[2]; [7],102%
same,activity at 1 µM,[2]; [8],103%
same,activity at 1 µM,[2]; [9],104%
same,activity at 1 µM,[2]; [10],97.9%
same,viability at 1 µM,[2]; [11],102%
same,viability at 10 µM,[2]; [7],96.5%
same,activity at 10 µM,[2]; [8],96.5%
same,activity at 10 µM,[2]; [9],104%
same,activity at 10 µM,[2]; [10],99.6%
same,viability at 10 µM,[2]; [11],96.5%
same,viability at 100 µM,[2]; [7],96.6%
same,activity at 100 µM,[2]; [8],96.5%
same,activity at 100 µM,[2]; [9],98.4%
same,activity at 100 µM,[2]; [10],99.8%
same,viability at 100 µM,[2]; [11],96.6%
same,minimal effective concentration,[2]; read-out: endo.cyto.24hr POD,100 µM
same,minimal effective concentration,[2]; read-out: endo.mito.24hr POD,100 µM
same,minimal effective concentration,[2]; [12],100 µM
same,minimal effective concentration,[2]; read-out: endo.nma.24hr POD,100 µM
same,minimal effective concentration,[2]; read-out: endo.tc.24hrs POD,100 µM
Clc1ccc(Cl)c(-c2cc(Cl)ccc2Cl)c1 [PCB52],activity at 0.01 µM,[1]; [3],109%
same,activity at 0.01 µM,[1]; [4],89.1%
same,activity at 0.01 µM,[1]; [5],152%
same,activity at 0.01 µM,[1]; [6],156%
same,activity at 0.1 µM,[1]; [3],111%
same,activity at 0.1 µM,[1]; [4],140%
same,activity at 0.1 µM,[1]; [5],108%
same,activity at 0.1 µM,[1]; [6],116%
same,activity at 1 µM,[1]; [3],107%
same,activity at 1 µM,[1]; [4],132%
same,activity at 1 µM,[1]; [5],125%
same,activity at 1 µM,[1]; [6],133%
same,activity at 10 µM,[1]; [3],110%
same,activity at 10 µM,[1]; [4],108%
same,activity at 10 µM,[1]; [5],119%
same,activity at 10 µM,[1]; [6],120%
same,activity at 100 µM,[1]; [3],79%
same,activity at 100 µM,[1]; [4],83.4%
same,activity at 100 µM,[1]; [5],89.5%
same,activity at 100 µM,[1]; [6],95.5%
same,minimal effective concentration,[1]; read-out: endo.mtl.18hr POD,79.8 µM
same,minimal effective concentration,[1]; read-out: endo.tlps.18hr POD,100 µM
same,minimal effective concentration,[1]; read-out: endo.tta.18hr POD,100 µM
same,minimal effective concentration,[1]; read-out: endo.ttl.18hr POD,100 µM
same,viability at 0.01 µM,[2]; [7],100%
same,activity at 0.01 µM,[2]; [8],99.8%
same,activity at 0.01 µM,[2]; [9],92.8%
same,activity at 0.01 µM,[2]; [10],103%
same,viability at 0.01 µM,[2]; [11],100%
same,viability at 0.1 µM,[2]; [7],98.4%
same,activity at 0.1 µM,[2]; [8],97.7%
same,activity at 0.1 µM,[2]; [9],87.4%
same,activity at 0.1 µM,[2]; [10],103%
same,viability at 0.1 µM,[2]; [11],98.4%
same,viability at 1 µM,[2]; [7],97.6%
same,activity at 1 µM,[2]; [8],97.5%
same,activity at 1 µM,[2]; [9],92%
same,activity at 1 µM,[2]; [10],100%
same,viability at 1 µM,[2]; [11],97.6%
same,viability at 10 µM,[2]; [7],99.3%
same,activity at 10 µM,[2]; [8],99.4%
same,activity at 10 µM,[2]; [9],86.3%
same,activity at 10 µM,[2]; [10],101%
same,viability at 10 µM,[2]; [11],99.3%
same,viability at 100 µM,[2]; [7],97.2%
same,activity at 100 µM,[2]; [8],97.4%
same,activity at 100 µM,[2]; [9],83.6%
same,activity at 100 µM,[2]; [10],100%
same,viability at 100 µM,[2]; [11],97.2%
same,minimal effective concentration,[2]; read-out: endo.cyto.24hr POD,100 µM
same,minimal effective concentration,[2]; read-out: endo.mito.24hr POD,100 µM
same,minimal effective concentration,[2]; [12],100 µM
same,minimal effective concentration,[2]; read-out: endo.nma.24hr POD,100 µM
same,minimal effective concentration,[2]; read-out: endo.tc.24hrs POD,100 µM
